We go through eight molecules from PubChem BioAssay (NCI).

Some test systems named below: HCT-116 colon; HT29 colon; K-562 leukemia; KM12 colon; NCI-H460 lung; PC-3 prostate; SF-268 CNS; SN12C renal; SNB-19 CNS; UO-31 renal.
Common to all, as to assay: NCI tumour cell line growth inhibition, 48 h

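1) Cells in 96-well plates. 2) Compound, 48 h, 5 concentrations. 3) Linear interpolation between surrounding doses. 4) Unreached endpoint = highest concentration. GI50 marks 50% less growth. Definition used: TGI = concentration required for complete inhibition of growth.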

For the molecule `CCCCCCCCCCN1CCC(N2CCCCC2)CC1`, the GI50 in the test on HCT-116 colon is 1.27 µM; with HT29 colon, 0.606 µM; in the test on K-562 leukemia, 1.28 µM; in the test on KM12 colon, 1.82 µM; with NCI-H460 lung, 2.99 µM; in the test on PC-3 prostate it was 2 µM. For the same molecule, the GI50 is 4.1 µM in the test with SF-268 CNS, 4.81 µM in the test with SN12C renal, 3.95 µM with SNB-19 CNS and 1 µM in the test on UO-31 renal. Further, the TGI in the test on HT29 colon is 4.33 µM; in the test on K-562 leukemia, 3.44 µM; with KM12 colon, 3.75 µM; in the test with NCI-H460 lung, 8.03 µM; in the test with PC-3 prostate, 13 µM; in the test on SF-268 CNS, 17 µM. Moreover, the TGI stood at 19.3 µM with SN12C renal, 14.5 µM in the test on SNB-19 CNS and 2.8 µM in the test with UO-31 renal.
`S=C1SC2=Nc3ccccc3CN2C2=NCCN12`: the GI50 in the test with HCT-116 colon was 52.8 µM; in the test with HT29 colon, 34.7 µM; with K-562 leukemia it was 32.8 µM; in the test with KM12 colon, > 100 µM; in the test on NCI-H460 lung, > 100 µM; in the test with PC-3 prostate, > 100 µM. The GI50 in the test on SF-268 CNS, in the test on SN12C renal, with SNB-19 CNS and in the test on UO-31 renal was > 100 µM each time. In addition, the TGI in the test with HCT-116 colon, in the test on HT29 colon, in the test with K-562 leukemia, in the test on KM12 colon, in the test on NCI-H460 lung and in the test on PC-3 prostate was > 100 µM in each case. For the same molecule, the TGI in the test with SF-268 CNS, in the test with SN12C renal, in the test with SNB-19 CNS and in the test with UO-31 renal was > 100 µM each time.
Consider `C/C(=N\NC(=S)N1CC2CCC(CC2)C1)c1ccccn1`, for which the GI50 was < 0.01 µM in the test on HCT-116 colon; < 0.014 µM in the test on HT29 colon; < 0.0108 µM with K-562 leukemia; 0.0837 µM in the test on KM12 colon; 0.044 µM in the test with NCI-H460 lung; 0.026 µM with PC-3 prostate. Further, the GI50 is 0.185 µM in the test with SF-268 CNS, 0.228 µM with SN12C renal, 0.345 µM in the test with SNB-19 CNS and 0.021 µM in the test on UO-31 renal. Also, the TGI with HCT-116 colon was 1.15 µM; in the test on HT29 colon, 1.67 µM; in the test with K-562 leukemia, 2.21 µM; in the test on KM12 colon, 1.59 µM; in the test with NCI-H460 lung it was 1.37 µM; in the test on PC-3 prostate, 1.75 µM. Moreover, the TGI in the test on SF-268 CNS came out at 2.4 µM; in the test with SN12C renal, 2.03 µM; in the test on SNB-19 CNS, 3.78 µM; in the test with UO-31 renal, 1.63 µM.
Consider `O=C(NCc1ccc(S(=O)(=O)c2cc(F)cc(F)c2)cc1)c1ccc2nccn2c1`, for which the GI50 with HCT-116 colon was < 0.01 µM; with HT29 colon it was 0.0885 µM; with K-562 leukemia it was 0.0103 µM; in the test with KM12 colon, 0.328 µM; with NCI-H460 lung it was 0.514 µM; in the test on SF-268 CNS, 28.4 µM. For the same molecule, the GI50 in the test on SN12C renal was < 0.01 µM; in the test with SNB-19 CNS, 2.56 µM; in the test with UO-31 renal it was > 44.8 µM. For the same molecule, the TGI in the test on HCT-116 colon, in the test with HT29 colon, in the test on K-562 leukemia, in the test with KM12 colon, with NCI-H460 lung and in the test with PC-3 prostate was > 100 µM throughout. Also, the TGI with SF-268 CNS, in the test with SN12C renal, with SNB-19 CNS and with UO-31 renal was > 100 µM in each case.
With `COC(C(=O)[C@@H](O)[C@@H](C)O)[C@@H]1Cc2cc3cc(O[C@H]4C[C@@H](O[C@H]5C[C@@H](O)[C@H](O)C(C)O5)[C@H](O)C(C)O4)c(C)c(O)c3c(O)c2C(=O)[C@H]1O[C@H]1C[C@@H](O[C@H]2C[C@@H](O[C@H]3C[C@@H](O)[C@H](OC)C(C)O3)[C@@H](O)C(C)O2)[C@H](O)C(C)O1` (some centres undefined), the GI50 is 0.0112 µM with HCT-116 colon; 0.0224 µM in the test on K-562 leukemia; 0.0132 µM in the test with NCI-H460 lung; 0.0317 µM in the test on PC-3 prostate; 0.0307 µM in the test on SF-268 CNS; 0.0953 µM in the test on UO-31 renal. Moreover, the TGI is > 33.3 µM in the test with HCT-116 colon; 0.131 µM with HT29 colon; > 33.3 µM with K-562 leukemia; > 33.3 µM in the test on KM12 colon; > 33.3 µM in the test with NCI-H460 lung; > 33.3 µM in the test on PC-3 prostate. The TGI is > 33.3 µM in the test on SF-268 CNS, > 33.3 µM in the test with SN12C renal, > 33.3 µM in the test on SNB-19 CNS and 0.934 µM with UO-31 renal.
In the case of `COc1ccc2c(c1)C(C)Cc1c(ncnc1-n1cnc3cc(C)ccc31)N2C` (centres undefined), the GI50 in the test with HCT-116 colon is 0.0736 µM; in the test with HT29 colon it was 0.174 µM; in the test on K-562 leukemia, 0.0386 µM; in the test with KM12 colon, 0.132 µM; in the test with NCI-H460 lung it was 0.128 µM; in the test on PC-3 prostate it was 0.0407 µM. Besides, the GI50 in the test on SF-268 CNS is 0.222 µM; in the test with SN12C renal it was 0.38 µM; with SNB-19 CNS, 0.216 µM; with UO-31 renal, 0.106 µM. The TGI in the test with HCT-116 colon was 14.9 µM; with HT29 colon it was 0.611 µM; in the test on K-562 leukemia, 15.2 µM; with KM12 colon it was 11.7 µM; in the test with NCI-H460 lung, 10.3 µM; with PC-3 prostate it was 21 µM. Besides, the TGI turned out to be 15 µM with SF-268 CNS, 20.5 µM in the test on SN12C renal, 20.4 µM with SNB-19 CNS and 13.1 µM in the test on UO-31 renal.
With `Cc1ccc(S(=O)(=O)NC(=O)NC2=NC(C)(C)N(c3ccc(Cl)c(Cl)c3)C(N)=N2)cc1`, the TGI in the test with HCT-116 colon, in the test with HT29 colon, with K-562 leukemia, in the test with KM12 colon, in the test with NCI-H460 lung and with PC-3 prostate was > 100 µM in each case. The TGI in the test on SF-268 CNS, in the test on SN12C renal, in the test on SNB-19 CNS and with UO-31 renal was > 100 µM each time.
Regarding `Cn1cc(-c2ccc(-c3cncc(Cl)c3N3CCC4(CCNC4=O)CC3)cc2)cn1`, the GI50 was 24.3 µM with HCT-116 colon; 16.9 µM with HT29 colon; 26.9 µM in the test on K-562 leukemia; 33.3 µM in the test with KM12 colon; 69.1 µM with NCI-H460 lung; 47.3 µM with PC-3 prostate. Also, the GI50 is 61.2 µM in the test on SF-268 CNS, 63.2 µM with SN12C renal, > 100 µM with SNB-19 CNS and 29 µM in the test on UO-31 renal. Besides, the TGI in the test on HCT-116 colon, in the test on HT29 colon, in the test on K-562 leukemia, in the test with KM12 colon, in the test with NCI-H460 lung and in the test with PC-3 prostate was > 100 µM in each case. The TGI with SF-268 CNS, in the test on SN12C renal, in the test on SNB-19 CNS and in the test with UO-31 renal was > 100 µM each time.
